# Measurements reported in paper PMC9925730, “Controlled sequential in situ self-assembly and disassembly of a fluorogenic cisplatin prodrug for cancer theranostics” (Nature Communications, 2023).
# Several values for one entry are separate records, joined by “and”; a condition that tells them apart may be missing. Identical values can stand only once.
# Assay: Urine and faeces analysis by HPLC (mCy-containing compounds)
# Assay type: in vivo, mice
# [1] = Time period 0-2 h, individual mice, matrix and injected agent not given
# [2] = Time period 0-2 h, mean of 3 mice, matrix and injected agent not given
# [3] = Time period 2-4 h, individual mice
# [4] = Time period 2-4 h, mean of 3 mice
# [5] = Time period 4-8 h, individual mice
# [6] = Time period 4-8 h, mean of 3 mice
# [7] = Time period 8-12 h, mean of 3 mice
# [8] = after i.v. preformed PtIVNPs, 2-4 h
# [9] = after i.v. preformed PtIVNPs, 4-8 h
# [10] = after i.v. preformed PtIVNPs, 8-12 h
compound,measurement,setting,value
CC1(C)C(/C=C/C2=C3Oc4cc(O)c(Cl)cc4C=C3CCC2)=[N+](CCCNC(=O)[C@@H](Cc2ccccc2)NC(=O)[C@@H](Cc2ccccc2)NC(=O)CCC(=O)[O][Pt]([NH2])([NH2])([OH])([Cl])[Cl])c2ccccc21 [CyPt],"Compound found in excreta (%), Supplementary Table S5",[1],1.0169% and 1.15% and 0.9269%
same,"Compound found in excreta (%), Supplementary Table S6",[1],0.0316% and 0.04969% and 0.02632%
same,"Compound found in excreta (%), Supplementary Table S7",[1],0%
same,"Compound found in excreta (%), Supplementary Table S8",[1],0.5086% and 0.616% and 0.02021%
same,"Compound found in excreta (%), Supplementary Table S5",[2],1.03%
same,"Compound found in excreta (%), Supplementary Table S6",[2],0.0359%
same,"Compound found in excreta (%), Supplementary Table S7",[2],0.00%
same,"Compound found in excreta (%), Supplementary Table S8",[2],0.38%
same,"Compound found in excreta (%), Supplementary Table S5",[3],0.5615% and 0.6076% and 0.4976%
same,"Compound found in excreta (%), Supplementary Table S6",[3],0.965% and 1.15% and 0.7153%
same,"Compound found in excreta (%), Supplementary Table S7",[3],2.308% and 2.538% and 1.332%
same,"Compound found in excreta (%), Supplementary Table S8",[3],12.9072% and 11.8054% and 9.624%
same,"Compound found in excreta (%), Supplementary Table S5",[4],0.56%
same,"Compound found in excreta (%), Supplementary Table S6",[4],0.94%
same,"Compound found in excreta (%), Supplementary Table S7",[4],2.06%
same,"Compound found in excreta (%), Supplementary Table S8",[4],11.45%
same,"Compound found in excreta (%), Supplementary Table S5",[5],0.2738% and 0.2968% and 0.2509%
same,"Compound found in excreta (%), Supplementary Table S6",[5],10.4273% and 10.6083% and 7.985%
same,"Compound found in excreta (%), Supplementary Table S7",[5],3.373% and 3.391% and 1.995%
same,"Compound found in excreta (%), Supplementary Table S8",[5],11.1798% and 12.4002% and 9.36%
same,"Compound found in excreta (%), Supplementary Table S5",[6],0.27%
same,"Compound found in excreta (%), Supplementary Table S6",[6],9.67%
same,"Compound found in excreta (%), Supplementary Table S7",[6],2.92%
same,"Compound found in excreta (%), Supplementary Table S8",[6],10.98%
same,"Compound found in excreta (%), Supplementary Table S8","Time period 8-12 h, individual mice",1.288% and 2.706% and 1.988%
same,"Compound found in excreta (%), Supplementary Table S5",[7],0.00%
same,"Compound found in excreta (%), Supplementary Table S6",[7],0.76%
same,"Compound found in excreta (%), Supplementary Table S7",[7],1.17%
same,"Compound found in excreta (%), Supplementary Table S8",[7],1.99%
same,percentage excreted to the faeces (HPLC),"after i.v. P-CyPt, 2-4 h",0.94 ± 0.22%
same,percentage excreted to the urine (HPLC),"after i.v. P-CyPt, 2-4 h",0.56 ± 0.055%
same,percentage excreted to the faeces (HPLC),"after i.v. P-CyPt, 4-8 h",9.67 ± 1.46% and ~ 9.7%
same,percentage excreted to the urine (HPLC),"after i.v. P-CyPt, 4-8 h",0.27 ± 0.23%
same,percentage excreted to the faeces (HPLC),"after i.v. P-CyPt, 8-12 h",0.76 ± 0.14%
same,percentage excreted to the urine (HPLC),"after i.v. P-CyPt, 8-12 h",0%
same,percentage excreted to the faeces (HPLC),[8],11.44 ± 1.67%
same,percentage excreted to the urine (HPLC),[8],2.06 ± 0.64%
same,percentage excreted to the faeces (HPLC),[9],10.98 ± 1.53%
same,percentage excreted to the urine (HPLC),[9],2.92 ± 0.80%
same,percentage excreted to the faeces (HPLC),[10],1.99 ± 0.71%
same,percentage excreted to the urine (HPLC),[10],1.16 ± 0.43%
